In article PMC12514245, “Impaired migration and lung invasion of human melanoma by a novel small molecule targeting the transmembrane domain of death receptor p75^NTR” (EMBO Molecular Medicine, 2025):
Several values for one entry are separate records, joined by “and”; a condition that tells them apart may be missing. Identical values can stand only once. Entries after “also recorded” stand apart in the source; their conditions may differ.

Tests used:
[1] = molecular target: T1, p75^NTR TMD (Homo sapiens, UniProt P08138); assay: AraTM assay, wild-type p75NTR TMD (GFP/OD630); format: cell-based; settings: structure-activity comparison
T1 sequence (P08138 250-275 limits assumed): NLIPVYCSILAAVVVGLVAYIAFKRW

[2] = system: A875 melanoma cells (NT); assay: Cleaved PARP western blot (apoptosis), A875 NT; format: cell-based, human; settings: Q-VD-pOH 5 µM; Div17E5 10 µM
Method: One of the main biological readouts of p75^NTR activity in response to neurotrophins is the induction of caspase-mediated apoptotic cell death (Underwood and Coulson, [2008]; Friedman, [2010]; Ibáñez and Simi, [2012]).
COS7, A875 and WM115 cell lines were cultured under standard conditions in DMEM supplemented with 10% fetal calf serum, 100 units/ml penicillin, […] streptomycin, and 2.5 mM glutamine. All cells were authenticated and tested for mycoplasma contamination. A875-NT (control) and A875 shp75 (knockdown) cell lines were described previously (Goh et al, [2018]).

[3] = system: A875 NT cells; assay: Wound healing cell motility assay, A875 NT; format: cell-based, human; settings: for Wound area, Mean / Wound area, n1-n3: 5μM Q_VD_poH; for Wound area, Mean: N=3
Method: (§1) For wound healing assay, cells were grown until confluency and subjected to a wound across the cell mono-layer. Cells were then incubated with serum-free media either with DMSO or a small molecule (with or without 5 µM Q_VD_poH) and imaged at specific time-points. Cell migration is reflected as fold change in wound area over time.

[4] = system: A875 shp75 cells; assay: Wound healing cell motility assay, A875 shp75; format: cell-based, human; settings: 5μM Q_VD_poH; for Wound area, Mean: N=3
Method: as §1

[5] = system: A875 NT cells; assay: Boyden chamber chemotaxis/invasion assay, A875 NT; format: cell-based, human; settings: 5μM Q_VD_pOH; for Fold change (invading cells), Mean: N=3
Method: For Boyden chamber assay, Corning® BioCoat™ Matrigel® Invasion Chambers 8.0 µm PET Membrane were used (cat. no. 354480). A875 NT or WM115 cells were serum-starved for 16 h and then seeded at 60,000 cells per well in serum-free media under different conditions, including DMSO (vehicle) or small molecules Div17E5 or Np75-4A22 at different concentrations to the top chamber of the Matrigel-coated trans-well chamber. The pan-caspase inhibitor Q_VD_poH (at 5 µM) was also introduced in the top chamber in some experiments. Two different chemoattractants, NGF (at 50 ng/ml or 100 ng/ml as indicated) or 10% FBS were added to the bottom chamber. Assays were carried out for 8 h after which filters were fixed in 4% PFA and stained with DAPI. Cells that had remained on the top of the filter were gently scrapped away with a cotton tip. The filter lower side was imaged on an inverted fluorescence microscope and counted using ImageJ software (NIH).

Cc1cccc(-c2cncc(Nc3ccc([N+](=O)[O-])cc3)n2)c1 [Np75-3A20]
activity in the AraTM assay [1]: Np75-3A21 better than -3A19 and -3A20

Cc1ccc(-c2cncc(Nc3ccc([N+](=O)[O-])cc3)n2)cc1 [Np75-3A21]
activity in the AraTM assay [1]: best compounds; also recorded: Np75-3A21 better than -3A19 and -3A20; also recorded: best hit from this series

O=C(Nc1ccc([N+](=O)[O-])cc1)c1cncc(-c2ccc3ccccc3c2)n1 [Np75-3A49]
activity in the AraTM assay [1]: activity was lost

O=C(Nc1ccc([N+](=O)[O-])cc1)c1cncc(-c2cccc(OC3CCCC3)c2)n1 [Np75-3A51]
activity in the AraTM assay [1]: activity was lost

COc1ccc(-c2cncc(Nc3ccc(Br)c(Cl)c3)n2)cc1 [Np75-3B03]
activity in the AraTM assay [1]: best compound in this series; also recorded: less potent than MS_18

CC(C)[C@H](NC(=O)c1ccc2ccccc2n1)C(=O)N[C@@H](CC(=O)O)C(=O)COc1c(F)cccc1F [Q-VD-pOH, reference compound]
block of Div17E5-induced apoptosis (cleaved PARP) [2]: could be blocked | rescue of Div17E5 effect on cell motility by caspase inhibitor [3]: could not be rescued | Wound area, Mean ([3]; 0 hours): 1.000 Fold | Wound area, n1-n3 ([3]; 3 hours): 0.912 Fold and 1.045 Fold and 0.955 Fold | Wound area, Mean ([3]; 3 hours): 0.971 Fold | Wound area, n1-n3 ([3]; 6 hours): 0.873 Fold and 1.010 Fold and 0.935 Fold | Wound area, Mean ([3]; 6 hours): 0.939 Fold | Wound area, n1-n3 ([3]; 9 hours): 0.814 Fold and 0.952 Fold and 0.859 Fold | Wound area, Mean ([3]; 9 hours): 0.875 Fold | Wound area, n1-n3 ([3]; 12 hours): 0.792 Fold and 0.920 Fold and 0.820 Fold | Wound area, Mean ([3]; 12 hours): 0.844 Fold | Wound area, n1-n3 ([3]; 15 hours): 0.758 Fold and 0.880 Fold and 0.797 Fold | Wound area, Mean ([3]; 15 hours): 0.811 Fold | Wound area, n1-n3 ([3]; 18 hours): 0.732 Fold and 0.836 Fold and 0.772 Fold | Wound area, Mean ([3]; 18 hours): 0.780 Fold | Wound area, n1-n3 ([3]; 21 hours): 0.724 Fold and 0.832 Fold and 0.756 Fold | Wound area, Mean ([3]; 21 hours): 0.771 Fold | Wound area, n1-n3 ([3]; 24 hours): 0.707 Fold and 0.800 Fold and 0.730 Fold | Wound area, Mean ([3]; 24 hours): 0.746 Fold | Wound area, n1-n3 ([4]; 0 hours): 0.942 Fold and 1.051 Fold and 1.006 Fold | Wound area, Mean ([4]; 0 hours): 1.000 Fold | Wound area, n1-n3 ([4]; 3 hours): 0.980 Fold and 1.009 Fold and 0.979 Fold | Wound area, Mean ([4]; 3 hours): 0.989 Fold | Wound area, n1-n3 ([4]; 6 hours): 0.990 Fold and 1.014 Fold and 0.952 Fold | Wound area, Mean ([4]; 6 hours): 0.985 Fold | Wound area, n1-n3 ([4]; 9 hours): 0.935 Fold and 0.937 Fold and 0.886 Fold | Wound area, Mean ([4]; 9 hours): 0.919 Fold | Wound area, n1-n3 ([4]; 12 hours): 0.939 Fold and 0.913 Fold and 0.875 Fold | Wound area, Mean ([4]; 12 hours): 0.909 Fold | Wound area, n1-n3 ([4]; 15 hours): 0.891 Fold and 0.870 Fold and 0.844 Fold | Wound area, Mean ([4]; 15 hours): 0.869 Fold | Wound area, n1-n3 ([4]; 18 hours): 0.856 Fold and 0.835 Fold and 0.800 Fold | Wound area, Mean ([4]; 18 hours): 0.830 Fold | Wound area, n1-n3 ([4]; 21 hours): 0.849 Fold and 0.778 Fold and 0.767 Fold | Wound area, Mean ([4]; 21 hours): 0.798 Fold | Wound area, n1-n3 ([4]; 24 hours): 0.815 Fold and 0.772 Fold and 0.761 Fold | Wound area, Mean ([4]; 24 hours): 0.783 Fold | Fold change (invading cells), n1-n3 ([5]; With NGF): 2.27 Fold and 1.89 Fold and 2.17 Fold | Fold change (invading cells), Mean ([5]; With NGF): 2.11 Fold | Fold change (invading cells), n1-n3 ([5]; without NGF): 1.22 Fold and 1.02 Fold and 1.42 Fold | Fold change (invading cells), Mean ([5]; without NGF): 1.22 Fold
